Our source for the melting point values is patent US9527812B2, “N-heterocyclic carbene-catalyzed synthesis of 2-aryl indoles” (Northwestern University, priority 2014, dated 2016).

What is called melting point is the temperature, or range, at which the solid turns liquid.

For the compound `Cc1c(-c2ccccc2)n(C(=O)OC(C)(C)C)c2ccccc12` [4aa, tert-butyl 3-methyl-2-phenyl-1H-indole-1-carboxylate], the melting point was 110 to 112 °C.

Compound `CC(C)(C)OC(=O)n1c(-c2ccc(Cl)cc2)cc2ccccc21` [4b, tert-butyl 2-(4-chlorophenyl)-1H-indole-1-carboxylate] returned a melting point of 86 to 87 °C.

As to `CC(C)(C)OC(=O)n1c(-c2ccc(Br)cc2)cc2ccccc21` [4c, tert-butyl 2-(4-bromophenyl)-1H-indole-1-carboxylate], the melting point was in the range of 88 to 89 °C.

In the case of `CC(C)(C)OC(=O)n1c(-c2ccc(C(F)(F)F)cc2)cc2ccccc21` [4e, tert-butyl 2-(4-(trifluoromethyl)phenyl)-1H-indole-1-carboxylate], the melting point was 108 to 109 °C.

Turning to `COc1ccc(-c2cc3ccccc3n2C(=O)OC(C)(C)C)cc1` [4g, tert-butyl 2-(4-methoxyphenyl)-1H-indole-1-carboxylate], the melting point is 89 to 90 °C.

`CC(C)(C)OC(=O)n1c(-c2ccc3ccccc3c2)cc2ccccc21` [4l, tert-butyl 2-(naphthalen-2-yl)-1H-indole-1-carboxylate] yielded a melting point of 134 to 135 °C.

`CC(C)(C)OC(=O)n1c(-c2ccccc2)cc2c(F)cccc21` [4p, tert-butyl 4-fluoro-2-phenyl-1H-indole-1-carboxylate]: the melting point is 121 to 122 °C.

In turn, `CC(C)(C)OC(=O)n1c(-c2ccccc2)cc2c(Cl)cccc21` [4q, tert-butyl 4-chloro-2-phenyl-1H-indole-1-carboxylate] showed a melting point of 111 to 112 °C.

`COc1cccc2c1cc(-c1ccccc1)n2C(=O)OC(C)(C)C` [4r, tert-butyl 4-methoxy-2-phenyl-1H-indole-1-carboxylate] returned a melting point of 81 to 82 °C.

`CC(C)(C)OC(=O)n1c(-c2ccccc2)cc2ccc(Cl)cc21` [4v, tert-butyl 6-chloro-2-phenyl-1H-indole-1-carboxylate] came in with a melting point of 61 to 62 °C.

For `CC(C)(C)OC(=O)n1c(-c2ccccc2)cc2ccc(Br)cc21` [4w, tert-butyl 6-bromo-2-phenyl-1H-indole-1-carboxylate], the melting point was 54 to 55 °C.

Compound `CC(C)(C)OC(=O)n1c(-c2ccccc2)cc2ccc(C(F)(F)F)cc21` [4x, tert-butyl 2-phenyl-6-(trifluoromethyl)-1H-indole-1-carboxylate] had a melting point of 104 °C.

On to `Cc1ccc2cc(-c3ccccc3)n(C(=O)OC(C)(C)C)c2c1` [4y, tert-butyl 6-methyl-2-phenyl-1H-indole-1-carboxylate], for which the melting point lay in the range of 62 to 64 °C.

`CC(C)(C)OC(=O)n1c(-c2ccccc2)cc2ccccc21` [compound 4, tert-butyl 2-phenyl-1H-indole-1-carboxylate] yielded a melting point of 70 to 72 °C.
